Measurements: ChEMBL document CHEMBL1138151, “Design and synthesis of promiscuous high-affinity monoamine transporter ligands: unraveling transporter selectivity” (J Med Chem, 2006)

What was measured:
[1] = target: T1, Sodium-dependent dopamine transporter (Homo sapiens, UniProt Q01959); experiment: Displacement of [125I]RTI-55 from DAT
[2] = target: T2, Sodium-dependent serotonin transporter (Homo sapiens, UniProt P31645); experiment: Displacement of [125I]RTI-55 from SERT
[3] = target: T3, Sodium-dependent noradrenaline transporter (Homo sapiens, UniProt P23975); experiment: Displacement of [3H]nisoxetine from NET
T3 sequence (P23975 whole entry): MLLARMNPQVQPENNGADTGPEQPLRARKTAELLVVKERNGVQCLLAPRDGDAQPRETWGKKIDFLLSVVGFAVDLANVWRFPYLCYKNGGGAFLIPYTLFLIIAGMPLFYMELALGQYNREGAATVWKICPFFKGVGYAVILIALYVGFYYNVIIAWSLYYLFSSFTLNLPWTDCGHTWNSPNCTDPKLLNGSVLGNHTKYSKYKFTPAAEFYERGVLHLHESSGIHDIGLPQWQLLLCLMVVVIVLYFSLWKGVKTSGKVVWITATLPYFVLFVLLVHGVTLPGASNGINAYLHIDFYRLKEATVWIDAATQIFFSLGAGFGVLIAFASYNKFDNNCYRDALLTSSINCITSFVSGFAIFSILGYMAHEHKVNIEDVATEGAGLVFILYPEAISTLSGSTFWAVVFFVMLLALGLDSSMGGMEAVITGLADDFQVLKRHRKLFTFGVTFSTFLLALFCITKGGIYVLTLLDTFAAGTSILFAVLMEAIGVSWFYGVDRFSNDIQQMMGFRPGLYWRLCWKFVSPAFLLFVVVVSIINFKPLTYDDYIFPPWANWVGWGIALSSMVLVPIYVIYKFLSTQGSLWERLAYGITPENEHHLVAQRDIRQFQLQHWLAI

[4] = target: T4, Monoamine transporters; serotonin & dopamine (Homo sapiens) (UniProt P31645+Q01959); experiment: Selectivity for SERT over DAT; type: protein assay
T4 sequence (P31645 whole entry, looked up): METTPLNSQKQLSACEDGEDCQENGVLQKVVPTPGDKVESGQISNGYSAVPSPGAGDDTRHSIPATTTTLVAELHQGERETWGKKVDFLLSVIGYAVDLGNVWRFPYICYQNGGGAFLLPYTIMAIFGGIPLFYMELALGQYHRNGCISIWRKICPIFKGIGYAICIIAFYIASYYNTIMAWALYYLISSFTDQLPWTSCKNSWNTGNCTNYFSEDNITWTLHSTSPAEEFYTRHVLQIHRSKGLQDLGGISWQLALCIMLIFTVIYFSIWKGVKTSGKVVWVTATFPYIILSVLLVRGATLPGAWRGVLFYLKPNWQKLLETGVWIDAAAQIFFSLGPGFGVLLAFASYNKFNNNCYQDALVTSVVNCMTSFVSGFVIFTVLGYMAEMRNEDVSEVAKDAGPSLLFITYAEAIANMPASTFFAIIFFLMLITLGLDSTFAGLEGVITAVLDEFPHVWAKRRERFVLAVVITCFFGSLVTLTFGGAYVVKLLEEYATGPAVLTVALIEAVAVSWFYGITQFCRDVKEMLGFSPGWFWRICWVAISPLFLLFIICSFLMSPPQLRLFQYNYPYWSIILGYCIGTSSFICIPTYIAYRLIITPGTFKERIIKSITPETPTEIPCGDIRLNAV
T4 sequence (Q01959 whole entry, looked up): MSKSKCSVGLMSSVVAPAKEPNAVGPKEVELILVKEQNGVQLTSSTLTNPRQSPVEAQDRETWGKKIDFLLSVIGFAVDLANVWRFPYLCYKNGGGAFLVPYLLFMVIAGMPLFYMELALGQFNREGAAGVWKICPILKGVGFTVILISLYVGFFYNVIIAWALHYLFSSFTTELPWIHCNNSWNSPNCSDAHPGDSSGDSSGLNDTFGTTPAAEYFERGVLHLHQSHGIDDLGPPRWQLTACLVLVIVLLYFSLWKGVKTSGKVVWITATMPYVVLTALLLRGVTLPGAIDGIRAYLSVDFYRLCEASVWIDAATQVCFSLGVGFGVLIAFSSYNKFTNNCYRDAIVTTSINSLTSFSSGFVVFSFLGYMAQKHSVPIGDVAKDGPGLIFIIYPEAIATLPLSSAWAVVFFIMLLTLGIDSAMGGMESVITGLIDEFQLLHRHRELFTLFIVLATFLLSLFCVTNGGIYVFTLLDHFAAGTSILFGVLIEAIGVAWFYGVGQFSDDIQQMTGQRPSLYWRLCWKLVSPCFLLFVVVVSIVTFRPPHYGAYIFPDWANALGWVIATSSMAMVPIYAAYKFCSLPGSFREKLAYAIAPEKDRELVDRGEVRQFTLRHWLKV

[5] = Selectivity for NET over DAT; type: protein assay; details: Homo sapiens
[6] = target: T1, Sodium-dependent dopamine transporter; experiment: Inhibition of [3H]DA uptake
[7] = target: T2, Sodium-dependent serotonin transporter; experiment: Inhibition of [3H]5-HT uptake
[8] = target: T3, Sodium-dependent noradrenaline transporter; experiment: Inhibition of [3H]NE uptake
[9] = target: T4, Monoamine transporters; serotonin & dopamine (Homo sapiens); experiment: Ratio for uptake of 5HT over DA; type: protein assay
[10] = target: Monoamine transporters; Norepinephrine & dopamine (Homo sapiens) (UniProt Q01959+P23975); experiment: Ratio for uptake of NE over DA; type: protein assay
Monoamine transporters; Norepinephrine & dopamine (Homo sapiens), sequence (P23975 whole entry, looked up): as the sequence (P23975 whole entry) above
Monoamine transporters; Norepinephrine & dopamine (Homo sapiens), sequence (Q01959 whole entry, looked up): as the sequence (Q01959 whole entry, looked up) above

T2 sequence (P31645 whole entry): as the sequence (P31645 whole entry, looked up) above
T1 sequence (Q01959 whole entry): as the sequence (Q01959 whole entry, looked up) above

Compound | Ki [1] | Ki [2] | Ki [3] | Ratio Ki [4] | Ratio Ki [5] | Ki [6] | Ki [7] | Ki [8] | Ratio Ki [9] | Ratio Ki [10]
N[C@H](Cc1ccccc1)CN1CCC(CCOC(c2ccc(F)cc2)c2ccc(F)cc2)CC1 | 12 nM | 68 nM | 941 nM | 6 | 78 | 17 nM | 229 nM | 402 nM | 13 | 24
Fc1ccc(C(OCCC2CCN(CC3=Cc4ccccc4CC3)CC2)c2ccc(F)cc2)cc1 | 1.1 nM | 127 nM | 43 nM | 118 | 40 | – | – | – | – | –
C[C@H](CCN1CCC(CCOC(c2ccc(F)cc2)c2ccc(F)cc2)CC1)c1ccccc1 | 2.2 nM | 58 nM | 560 nM | 26 | 253 | – | – | – | – | –
C[C@@H](Cc1ccccc1)CN1CCC(CCOC(c2ccc(F)cc2)c2ccc(F)cc2)CC1 | 8 nM | 100 nM | 380 nM | 13 | 47 | 3.8 nM | 124 nM | 160 nM | 33 | 42
Fc1ccc(C(OCCC2CCN(C[C@@H]3C[C@H]3c3ccccc3)CC2)c2ccc(F)cc2)cc1 | 0.5 nM | 16 nM | 947 nM | 32 | 1890 | – | – | – | – | –
N[C@@H](Cc1ccccc1)CN1CCC(CCOC(c2ccc(F)cc2)c2ccc(F)cc2)CC1 | 6.3 nM | 76 nM | 851 nM | 12 | 135 | 13 nM | 228 nM | 338 nM | 18 | 26
O[C@H](CCc1ccccc1)CN1CCC(CCOC(c2ccc(F)cc2)c2ccc(F)cc2)CC1 | 2.1 nM | 13 nM | 460 nM | 6 | 215 | 1.4 nM | 19 nM | 79 nM | 14 | 56
O[C@H](Cc1ccccc1)CN1CCC(CCOC(c2ccccc2)c2ccccc2)CC1 | 6.9 nM | 286 nM | 785 nM | 42 | 114 | – | – | – | – | –
O[C@@H](CCN1CCC(CCOC(c2ccc(F)cc2)c2ccc(F)cc2)CC1)c1ccccc1 | 0.9 nM | 22 nM | 440 nM | 26 | 515 | – | – | – | – | –
O[C@@H](CCc1ccccc1)CN1CCC(CCOC(c2ccc(F)cc2)c2ccc(F)cc2)CC1 | 1.6 nM | 38 nM | 736 nM | 24 | 457 | – | – | – | – | –
O[C@H](CCN1CCC(CCOC(c2ccccc2)c2ccccc2)CC1)c1ccccc1 | 1.8 nM | 280 nM | > 5600 nM | 158 | > 3200 | – | – | – | – | –
C[C@@H](CCN1CCC(CCOC(c2ccc(F)cc2)c2ccc(F)cc2)CC1)c1ccccc1 | 1.3 nM | 30 nM | 340 nM | 22 | 259 | 2.1 nM | 75 nM | 40 nM | 36 | 19
O[C@@H](Cc1ccccc1)CN1CCC(CCOC(c2ccc(F)cc2)c2ccc(F)cc2)CC1 | 0.4 nM | 82 nM | 361 nM | 205 | 902 | – | – | – | – | –
Fc1ccc(C(OCCC2CCN(C[C@H]3C[C@@H]3c3ccccc3)CC2)c2ccc(F)cc2)cc1 | 1.4 nM | 136 nM | 359 nM | 97 | 256 | – | – | – | – | –
O[C@@H](CCN1CCC(CCOC(c2ccccc2)c2ccccc2)CC1)c1ccccc1 | 2.1 nM | 230 nM | 210 nM | 107 | 101 | – | – | – | – | –
O[C@@H](Cc1ccccc1)CN1CCC(CCOC(c2ccccc2)c2ccccc2)CC1 | 1.4 nM | 450 nM | 485 nM | 332 | 359 | – | – | – | – | –
O[C@H](CCN1CCC(CCOC(c2ccc(F)cc2)c2ccc(F)cc2)CC1)c1ccccc1 | 0.8 nM | 43 nM | 330 nM | 51 | 394 | – | – | – | – | –
C[C@H](Cc1ccccc1)CN1CCC(CCOC(c2ccc(F)cc2)c2ccc(F)cc2)CC1 | 0.9 nM | 53 nM | 103 nM | 61 | 118 | – | – | – | – | –
O[C@H](Cc1ccccc1)CN1CCC(CCOC(c2ccc(F)cc2)c2ccc(F)cc2)CC1 | 5.1 nM | 91 nM | 1220 nM | 18 | 240 | 1.7 nM | 41 nM | 143 nM | 24 | 84
